Results reported in US7862798B2, “Vitamin-targeted imaging agents” (Endocyte, Inc., priority 2002, dated 2011).

Tests used:
[1] = target: T1, folate receptor (FR) on FR-positive KB cells (Homo sapiens, UniProt P15328); test: Relative affinity assay (blocking of 3H-folic acid binding to KB cells); conditions: for RA (relative affinity): inverse molar ratio to displace 50% of 3H-folic acid, folic acid set to 1
T1 construct: FR-positive KB cells were gently trypsinized; endogenous in cells; host or cells: KB cells
Description: The relative affinity of various folate derivatives was determined according to the method described by Westerhoff et al. (Mol. Pharm., 48: 459-471 (1995)) with slight modification. Briefly, FR-positive KB cells were gently trypsinized in 0.25% trypsin/PBS at room temperature for 3 minutes and then diluted in FFRPMI/HIFCS. Following a 5 min 800×g spin and one PBS wash, the final cell pellet was suspended in FFRPMI 1640 (no serum). […] Samples were centrifuged at 10,000×g for 5 min, cell pellets were suspended in buffer, were transferred to individual vials containing 5 mL of scintillation cocktail, and were then counted for radioactivity.
Likewise, values lower than unity reflect weaker affinity, and values higher than unity reflect stronger affinity.
Following a 15-minute incubation at 4° C., cells were rinsed free of unbound material and counted for residual cell-associated radioactivity.

FR-positive KB tumors = test: Tissue distribution, KB tumor model (Example 16, Table 5); format: in vivo, nude mice; conditions: for Blood / Heart / Kidney (one) / Liver & Gall Bladder / Lungs / Muscle / Spleen / Stomach, Intestines & Contents / Tumor: 99mTc-labelled conjugate, 4 hours post i.v.
Description: The protocols used in this example are similar to those described in Example 11. The ability of ^99mTc-EC11 (peptide-A1), ^99mTc-EC13 (peptide-A3), and ^99mTc-EC14 (peptide-A2) to target tumors in vivo was assessed using the FR-positive KB tumor model.
FR-positive KB tumor cells (0.25×10^6 per animal) were inoculated subcutaneously in the intracapsular region. Fourteen days after tumor cell inoculation, the animals (n=4/group) were injected intravenously with ^99mTc-EC11, ^99mTc-EC13, or ^99mTc-EC14 at the doses (about 12 μg/kg) of the conjugates shown in Table 5 below. Stocks of ^99mTc-EC11, ^99mTc-EC13, and ^99mTc-EC14 solutions were prepared on the day of use as described above. About a 20-fold excess of free folate (about 200 μg/kg) was co-administered to control animals (n=4/group). […] Selected tissues were removed, weighed, and counted in an automatic gamma counter to determine ^99mTc distribution. Uptake of the radiopharmaceutical in terms of percentage injected dose of wet weight tissue (% ID/g) was calculated by reference to standards prepared from dilutions of the injected preparation.

FR-positive M109 tumors = test: Tissue distribution, subcutaneous M109 tumors (Example 11)
Description: The ability of ^99mTc-EC20 to target tumors in vivo was assessed using a FR-positive M109 model.
Four to five week-old mice (Balb/c strain) were purchased from Harlan Sprague Dawley, Inc. (Indianapolis, Ind.) and were maintained on a folate-free diet for a total of three weeks prior to the experiment. Syngeneic, FR-positive M109 tumor cells (1×10^6 per animal) were inoculated in the subcutis of the right axilla two weeks prior to the experiment.
Animals received an approximate 40 μmol/kg i.v. dose of test article in 100 μL volume via a lateral tail vein during brief diethyl ether anesthesia. Four hours post-injection, animals were sacrificed by CO2 asphyxiation, and dissected. Selected tissues were removed, weighed, and counted to determine ^99mTc distribution. CPM values were decay-corrected, and results were tabulated as % injected dose per gram of wet weight tissue.

[2] = folic acid dihydrate co-injected (about 200 μg/kg)
[3] = folic acid dihydrate co-injected
[4] = 4 hr post intravenous injection

T1 sequence (P15328 25-234): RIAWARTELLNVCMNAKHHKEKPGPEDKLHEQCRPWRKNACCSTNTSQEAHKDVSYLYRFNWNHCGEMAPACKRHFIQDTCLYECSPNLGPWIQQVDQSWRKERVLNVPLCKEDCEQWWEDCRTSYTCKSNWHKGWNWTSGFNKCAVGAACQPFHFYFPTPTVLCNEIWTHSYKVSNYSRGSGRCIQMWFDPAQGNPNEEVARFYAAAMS

Nc1nc2ncc(CNc3ccc(C(=O)N[C@H](CCC(=O)NC[C@@H]4[NH2+][Re-]56(=[O])[S]C[C@@H](C(=O)O)[N]5C(=O)[C@H](CC(=O)O)[N]6C4=O)C(=O)O)cc3)nc2c(=O)[nH]1 (single isomer, unassigned; isomer 2) [EC20:Re isomer 2]
IC50 ([1]; 100 nM 3H-folic acid, KB cells, 15 min on ice, triplicate): 86 nM
RA (relative affinity) [1]: 1.37
RA (relative affinity) ([1]; listed as Re-EC20 isomer B): 1.37

Nc1nc2ncc(CNc3ccc(C(=O)N[C@@H](CCC(=O)NC[C@H](N)C(=O)N[C@@H](CO)C(=O)N[C@@H](CS)C(=O)O)C(=O)O)cc3)nc2c(=O)[nH]1 [EC13]
Blood (FR-positive KB tumors; [2]): 0.16 ± 0.02 Percentage of Injected 99mTc D
Heart (FR-positive KB tumors; [2]): 0.20 ± 0.03 Percentage of Injected 99mTc D
Kidney (one) (FR-positive KB tumors; [2]): 29.1 ± 2.2 Percentage of Injected 99mTc D
Liver & Gall Bladder (FR-positive KB tumors; [2]): 0.65 ± 0.04 Percentage of Injected 99mTc D
Lungs (FR-positive KB tumors; [2]): 0.23 ± 0.02 Percentage of Injected 99mTc D
Muscle (FR-positive KB tumors; [2]): 0.21 ± 0.03 Percentage of Injected 99mTc D
Spleen (FR-positive KB tumors; [2]): 0.15 ± 0.02 Percentage of Injected 99mTc D
Stomach, Intestines & Contents (FR-positive KB tumors; [2]): 3.7 ± 0.7 Percentage of Injected 99mTc D
Tumor (FR-positive KB tumors; [2]): 1.67 ± 0.24 Percentage of Injected 99mTc D
Blood (FR-positive KB tumors; no folic acid): 0.25 ± 0.03 Percentage of Injected 99mTc D
Heart (FR-positive KB tumors; no folic acid): 1.6 ± 0.1 Percentage of Injected 99mTc D
Kidney (one) (FR-positive KB tumors; no folic acid): 54.5 ± 2.4 Percentage of Injected 99mTc D
Liver & Gall Bladder (FR-positive KB tumors; no folic acid): 3.5 ± 0.7 Percentage of Injected 99mTc D
Lungs (FR-positive KB tumors; no folic acid): 1.1 ± 0.1 Percentage of Injected 99mTc D
Muscle (FR-positive KB tumors; no folic acid): 1.7 ± 0.2 Percentage of Injected 99mTc D
Spleen (FR-positive KB tumors; no folic acid): 0.39 ± 0.06 Percentage of Injected 99mTc D
Stomach, Intestines & Contents (FR-positive KB tumors; no folic acid): 2.5 ± 0.2 Percentage of Injected 99mTc D
Tumor (FR-positive KB tumors; no folic acid, KB tumor): 5.46 ± 0.45 Percentage of Injected 99mTc D
Tumor/Blood (FR-positive KB tumors; [3]): 10.2 ± 1.5.^
Tumor/Kidney (FR-positive KB tumors; [3]): 0.058 ± 0.010
Tumor/Liver (FR-positive KB tumors; [3]): 2.6 ± 0.3
Tumor/Muscle (FR-positive KB tumors; [3]): 8.2 ± 2.0
Tumor/Blood (FR-positive KB tumors; no folic acid): 22.5 ± 1.4
Tumor/Kidney (FR-positive KB tumors; no folic acid): 0.10 ± 0.01
Tumor/Liver (FR-positive KB tumors; no folic acid): 1.6 ± 0.2
Tumor/Muscle (FR-positive KB tumors; no folic acid): 3.3 ± 0.3

Nc1nc2ncc(CNc3ccc(C(=O)N[C@@H](CCC(=O)N[C@@H](CCC(=O)NC[C@@H]4[NH2+][99Tc-]56(=[O])[S]C[C@@H](C(=O)O)[N]5C(=O)[C@H](CC(=O)O)[N]6C4=O)C(=O)O)C(=O)O)cc3)nc2c(=O)[nH]1 [^99mTc-EC11]
accumulation in FR-positive KB tumors and kidneys on co-administration of free folate (FR-positive KB tumors; about 20-fold excess of free folate): blocked

benzoyl-D-Glu-n-Glu-βDpr-Asp-Cys [^99mTc-EC28, reference compound]
accumulation in the kidneys and tumor (FR-positive M109 tumors; 4 hr post i.v.): failed to appreciably accumulate in the kidneys and tumor
Blood (FR-positive M109 tumors; [4]): 0.06 ± 0.04 % Injected Dose per Gram Tissue
Heart (FR-positive M109 tumors; [4]): 0.03 ± 0.01 % Injected Dose per Gram Tissue
Intestine (FR-positive M109 tumors; [4]): 0.47 ± 0.19 % Injected Dose per Gram Tissue
Kidney (FR-positive M109 tumors; [4]): 0.62 ± 0.14 % Injected Dose per Gram Tissue
Liver (FR-positive M109 tumors; [4]): 0.50 ± 0.26 % Injected Dose per Gram Tissue
Lung (FR-positive M109 tumors; [4]): 0.05 ± 0.01 % Injected Dose per Gram Tissue
Muscle (FR-positive M109 tumors; [4]): 0.02 ± 0.01 % Injected Dose per Gram Tissue
Spleen (FR-positive M109 tumors; [4]): 0.60 ± 0.38 % Injected Dose per Gram Tissue
Stomach (FR-positive M109 tumors; [4]): 0.21 ± 0.19 % Injected Dose per Gram Tissue
Tumor/Blood (FR-positive M109 tumors; [4]): 2.00 ± 0.50
Tumor (FR-positive M109 tumors; 4 hr post intravenous injection, M109 tumor): 0.11 ± 0.06 % Injected Dose per Gram Tissue
